Source: US20230203043A1, “NOVEL IMIDAZOPYRAZINE DERIVATIVES” (Hoffmann-La Roche Inc., priority 2020, published 2023)
Structures can show the parent of a compound that is named as a salt. Where two headings read alike, the source gives them in different places.

Test system: Acinetobacter baumannii ATCC17961
Test: Antimicrobial susceptibility testing: 90% growth inhibitory concentration (IC90) determination in Iso-Sensitest broth, OD600 growth
Assay type: cell-based
Settings: Acinetobacter baumannii, ATCC17961, 16 h
How it was run: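 Compounds were twofold serially diluted in DMSO across 10 points (e.g. 50 to 0.097 μM final) and inoculated at ~5×10^(5) CFU/ml. Plates incubated at 35±2° C, with OD600 read every 20 minutes over 16 h. IC90 was derived from growth inhibition during logarithmic growth.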

[1] = strain ATCC 17961, OD600 growth over 16 h, read-out: A. baumannii ATCC 17961 IC90
[2] = read-out: A. baumannii ATCC 17961 IC90 (uM), strain ATCC 17961, OD600 growth over 16 h

Row | Compound | IC90 [1] [µM] | IC90 [2] [µM]
1 | CCc1cc(Nc2nccn3c(-c4cn(CC(F)F)nc4C(F)(F)F)cnc23)ccc1C(=O)NCC(=O)NCCN [Example 729, N-[2-(2-aminoethylamino)-2-oxo-ethyl]-4-[[3-[1-(2,2-difluoroethyl)-3-(trifluoromethyl)pyrazol-4-yl]imidazo[1,2-a]pyrazin-8-yl]amino]-2-ethyl-benzamide] | 0.473 | 
2 | C#CCn1cc(-c2cnc3c(Nc4ccc(C(=O)N5CCN(C(=O)C6CCNCC6)CC5)c(CC)c4)nccn23)c(C(F)F)n1 [Example 730, (4-(4-((3-(3-(difluoromethyl)-1-(prop-2-yn-1-yl)-1H-pyrazol-4-yl)imidazo[1,2-a]pyrazin-8-yl)amino)-2-ethylbenzoyl)piperazin-1-yl)(piperidin-4-yl) methanone] | 0.475 | 
3 | N#CCn1cc(-c2cnc3c(Nc4ccc(C(=O)NCC(=O)N[C@H]5CCNC5)c(Cl)c4)nccn23)c(C(F)(F)F)n1 [Example 731, 2-chloro-4-[[3-[1-(cyanomethyl)-3-(trifluoromethyl)pyrazol-4-yl]imidazo[1,2-a]pyrazin-8-yl]amino]-N-[2-oxo-2-[[(3S)-pyrrolidin-3-yl]amino]ethyl]benzamide formate] |  | 0.476
4 | CCc1cc(Nc2nccn3c(-c4cn(CC#N)nc4C(F)(F)F)cnc23)ccc1C(=O)N[C@H](C)C(=O)N1CC[C@@H](N)C1 [Example 732, N-[(1R)-2-[(3R)-3-aminopyrrolidin-1-yl]-1-methyl-2-oxo-ethyl]-4-[[3-[1-(cyanomethyl)-3-(trifluoromethyl)pyrazol-4-yl]imidazo[1,2-a]pyrazin-8-yl]amino]-2-ethyl-benzamide formate] |  | 0.48
5 | CCc1cc(Nc2nccn3c(-c4cn(CC(F)F)nc4C(F)(F)F)cnc23)ccc1C(=O)NCC(=O)N1CC(N)C1 [Example 733, N-[2-(3-aminoazetidin-1-yl)-2-oxo-ethyl]-4-[[3-[1-(2,2-difluoroethyl)-3-(trifluoromethyl)pyrazol-4-yl]imidazo[1,2-a]pyrazin-8-yl]amino]-2-ethyl-benzamide] | 0.481 | 
6 | C#CCn1cc(-c2cnc3c(Nc4ccc(C(=O)N5CCN(C(=O)[C@H]6C[C@H](N)C6)CC5)c(CC)c4)nccn23)c(C(F)F)n1 [Example 734, (4-((1r,3r)-3-aminocyclobutane-1-earbonyl)piperazin-1-yl)(4-((3-(3-(difluoromethyl)-1-(prop-2-yn-1-yl)-1H-pyrazol-4-yl)imidazo[1,2-a]pyrazin-8-yl)amino)-2-ethylphenyl)methanone] | 0.489 | 
7 | Cc1cc(Nc2nccn3c(-c4cn(CCF)nc4C(F)(F)F)cnc23)cc(F)c1C(=O)N[C@H](C)CN [Example 735, (R)-N-(1-aminopropan-2-yl)-2-fluoro-4-((3-(1-(2-fluoroethyl)-3-(trifluoromethyl)-1H-pyrazol-4-yl)imidazo[1,2-a]pyrazin-8-yl)amino)-6-methylbenzamide] | 0.49 | 
8 | CCc1cc(Nc2nccn3c(-c4cn(CC#N)nc4C(F)(F)F)cnc23)ccc1C(=O)N[C@H](C)C(=O)N1CC[C@H](N)C1 [Example 736, N-[(1R)-2-[(3S)-3-aminopyrrolidin-1-yl]-1-methyl-2-oxo-ethyl]-4-[[3-[1-(cyanomethyl)-3-(trifluoromethyl)pyrazol-4-yl]imidazo[1,2-a]pyrazin-8-yl]amino]-2-ethyl-benzamide formate] |  | 0.49
9 | CCc1cc(Nc2nccn3c(-c4cn(CCF)nc4C(F)(F)F)cnc23)ccc1C(=O)NCCOCCN1CCOCC1 [Example 737, 2-ethyl-4-((3-(1-(2-fluoroethyl)-3-(trifluoromethyl)-1H-pyrazol-4-yl)imidazo[1,2-a]pyrazin-8-yl)amino)-N-(2-(2-morpholinoethoxy)ethyl)benzamide formate] |  | 0.495
10 | Cc1cc(Nc2nccn3c(-c4cn(CC#N)nc4C(F)(F)F)cnc23)ccc1C(=O)N[C@H](C)C(=O)N[C@H]1CCNC1 [Example 738, 4-[[3-[1-(cyanomethyl)-3-(trifluoromethyl)pyrazol-4-yl]imidazo[1,2-a]pyrazin-8-yl]amino]-2-methyl-N-[(1R)-1-methyl-2-oxo-2-[[(3S)-pyrrolidin-3-yl]amino]ethyl]benzamide formate] |  | 0.526
11 | Cc1cc(Nc2nccn3c(-c4cn(CC#N)nc4C(F)(F)F)cnc23)ccc1C(=O)NCC(=O)N1CC[C@H](N)C1 [Example 739, N-[2-[(3S)-3-aminopyrrolidin-1-yl]-2-oxo-ethyl]-4-[[3-[1-(cyanomethyl)-3-(trifluoromethyl)pyrazol-4-yl]imidazo[1,2-a]pyrazin-8-yl]amino]-2-methyl-benzamide formate] |  | 0.527
12 | CCc1cc(Nc2nccn3c(-c4c[nH]nc4C(F)(F)F)cnc23)ccc1C(=O)NCCNC(=O)[C@H]1C[C@@H](N)C1 [Example 740, N-(2-((1s,3s)-3-aminocyclobutane-1-carboxamido)ethyl)-2-ethyl-4-((3-(3-(trifluoromethyl)-1H-pyrazol-4-yl)imidazo[1,2-a]pyrazin-8-yl)amino)benzamide] | 0.529 | 
13 | Cc1cc(Nc2nccn3c(-c4cn(CC#N)nc4C(F)(F)F)cnc23)cc(F)c1C(=O)N[C@H](C)CNC(=O)C1CCNCC1 [Example 741, (R)-N-(2-(4-((3-(1-(cyanomethyl)-3-(trifluoromethyl)-1H-pyrazol-4-yl)imidazo[1,2-a]pyrazin-8-yl)amino)-2-fluoro-6-methylbenzamido)propyl)piperidine-4-carboxamide formate] |  | 0.53
14 | CCc1cc(Nc2nccn3c(-c4cn(CC(F)F)nc4C(F)F)cnc23)ccc1C(=O)N1CCN(C(=O)C2CCNCC2)CC1 [Example 742, (4-(4-((3-(1-(2,2-difluoroethyl)-3-(difluoromethyl)-1H-pyrazol-4-yl)imidazo[1,2-a]pyrazin-8-yl)amino)-2-ethylbenzoyl)piperazin-1-yl)(piperidin-4-yl) methanone] | 0.53 | 
15 | CCc1cc(Nc2nccn3c(-c4cn(CC(F)F)nc4C(F)F)cnc23)ccc1C(=O)N1CCN(C(=O)[C@H]2C[C@H](N)C2)CC1 [Example 743, (4-((1r,3r)-3-aminocyclobutane-1-carbonyl)piperazin-1-yl)(4-((3-(1-(2,2-difluoroethyl)-3-(difluoromethyl)-1H-pyrazol-4-yl)imidazo[1,2-a]pyrazin-8-yl)amino)-2-ethylphenyl) methanone] | 0.532 | 
16 | Cc1cc(Nc2nccn3c(-c4cn(CC(F)F)nc4C(F)(F)F)cnc23)cc(F)c1C(=O)N[C@H](C)CNC(=O)[C@@H]1C[C@@H](O)CN1 [Example 744, (2S,4R)-N-((R)-2-(4-((3-(1-(2,2-difluoroethyl)-3-(trifluoromethyl)-1H-pyrazol-4-yl)imidazo[1,2-a]pyrazin-8-yl)amino)-2-fluoro-6-methylbenzamido)propyl)-4-hydroxypyrrolidine-2-carboxamide] | 0.557 | 
17 | CCc1cc(Nc2nccn3c(-c4cn(C(C)C#N)nc4C(F)(F)F)cnc23)ccc1C(=O)NCCOCCN1CCOCC1 (stereo not drawn) [Example 745, 4-((3-(1-(1-cyanoethyl)-3-(trifluoromethyl)-1H-pyrazol-4-yl)imidazo[1,2-a]pyrazin-8-yl)amino)-2-ethyl-N-(2-(2-morpholinoethoxy)ethyl) benzamide formate] | 0.569 | 
18 | Cc1cc(Nc2nccn3c(-c4cn(CC#N)nc4C(F)(F)F)cnc23)ccc1C(=O)N[C@H](C)C(=O)N[C@@H]1CCNC1 [Example 746, 4-[[3-[1-(cyanomethyl)-3-(trifluoromethyl)pyrazol-4-yl]imidazo[1,2-a]pyrazin-8-yl]amino]-2-methyl-N-[(1R)-1-methyl-2-oxo-2-[[(3R)-pyrrolidin-3-yl]amino]ethyl] benzamide formate] | 0.581 | 
19 | C#CCn1cc(-c2cnc3c(Nc4ccc(C(=O)N5CCN(C(=O)[C@@H](C)N)CC5)c(CC)c4)nccn23)c(C(F)F)n1 [Example 747, (R)-2-amino-1-(4-(4-((3-(3-(difluoromethyl)-1-(prop-2-yn-1-yl)-1H-pyrazol-4-yl)imidazo[1,2-a]pyrazin-8-yl)amino)-2-ethylbenzoyl)piperazin-1-yl)propan-1-one] | 0.598 | 
20 | CCc1cc(Nc2nccn3c(-c4c[nH]nc4C(F)(F)F)cnc23)ccc1C(=O)NCCCNC(=O)[C@@H](C)NC(=O)C(F)(F)F [Example 748, (R)-2-ethyl-N-(3-(2-(2,2,2-trifluoroacetamido)propanamido)propyl)-4-((3-(3-(trifluoromethyl)-1H-pyrazol-4-yl)imidazo[1,2-a]pyrazin-8-yl)amino) benzamide] | 0.608 | 
21 | Cc1cc(Nc2nccn3c(-c4cn(CC#N)nc4C(F)(F)F)cnc23)ccc1C(=O)NCC(=O)NC1CC(N)C1 (stereo not drawn) [Example 749, N-[2-[(3-aminocyclobutyl)amino]-2-oxo-ethyl]-4-[[3-[1-(cyanomethyl)-3-(trifluoromethyl)pyrazol-4-yl]imidazo[1,2-a]pyrazin-8-yl]amino]-2-methyl-benzamide formate] |  | 0.619
22 | Cc1cc(Nc2nccn3c(-c4cn(CC#N)nc4C(F)(F)F)cnc23)ccc1C(=O)NCC(=O)N[C@@H]1CCNC1 [Example 750, 4-[[3-[1-(cyanomethyl)-3-(trifluoromethyl)pyrazol-4-yl]imidazo[1,2-a]pyrazin-8-yl]amino]-2-methyl-N-[2-oxo-2-[[(3R)-pyrrolidin-3-yl]amino]ethyl]benzamide formate] |  | 0.625
23 | Cc1cc(Nc2nccn3c(-c4cn(CC#N)nc4C(F)(F)F)cnc23)ccc1C(=O)NCC(=O)N1CC(N)C1 [Example 751, N-[2-(3-aminoazetidin-1-yl)-2-oxo-ethyl]-4-[[3-[1-(cyanomethyl)-3-(trifluoromethyl)pyrazol-4-yl]imidazo[1,2-a]pyrazin-8-yl]amino]-2-methyl-benzamide formate] |  | 0.627
24 | Cc1cc(Nc2nccn3c(-c4cn(CC#N)nc4C(F)(F)F)cnc23)ccc1C(=O)NCC(=O)NCCN(C)C [Example 752, 4-[[3-[1-(cyanomethyl)-3-(trifluoromethyl)pyrazol-4-yl]imidazo[1,2-a]pyrazin-8-yl]amino]-N-[2-[2-(dimethylamino)ethylamino]-2-oxo-ethyl]-2-methyl-benzamide formate] |  | 0.636
